Experimental data: PMC11541474, “Toward New Therapeutics for Visceral Leishmaniasis: Efficacy and Mechanism of Action of Amides Inspired by Gibbilimbol B” (ACS Omega, 2024)

Legend:
[1] = system: L. (L.) infantum intracellular amastigotes; test: ex-vivo assay using intracellular amastigotes of L. (L.) infantum; format: cell-based, Leishmania (L.) infantum; conditions: for EC50: Leishmania infantum, L. (L.) infantum intracellular amastigotes, read-out: Ec50 Amastigote (μm) ± SD; for S.I. amastigote (selectivity index): CC50 against NCTC cells/EC50 against amastigotes
Method: (§1) Evaluation of in vitro activity against promastigote and amastigote forms of L. (L.) infantum was performed as previously reported assays.[40]−[43] The CC50 and EC50 values were calculated using sigmoidal dose–response curves using Graph Pad Prism 5.0 software. One-way ANOVA testing with Tukey’s multiple comparison tests were used for evaluation of the statistical significance (p-value) of differences between the samples, which were tested in duplicate and all assays were repeated at least twice.

[2] = in vitro mammalian toxicity against NCTC cells; format: cell-based; conditions: 50% cytotoxic concentration, read-out: Cc50 Nctc (μm) ± SD
Method: as §1, with “mammalian toxicity” for “activity”, “NCTC cells” for “promastigote and amastigote forms of L. (L.) infantum”, “described.[40] The selectivity index was determined using the following equation: CC50 against NCTC cells/EC50 against amastigotes.[44]” for “reported assays.[40]−[43]”

[3] = system: L. (L.) infantum promastigotes; test: in vitro activity against promastigote forms of L. (L.) infantum; format: cell-based, Leishmania (L.) infantum; conditions: for EC50: Leishmania infantum, L. (L.) infantum promastigotes, read-out: Ec50 Promastigote (μm) ± SD
Method: as §1

[4] = system: L. (L.) infantum promastigotes; format: cell-based, Leishmania (L.) infantum; conditions: 9 at 141.5 μM, 10 at 110.1 μM, after 240 min
Method: Figure 5 Evaluation of ROS in promastigotes of L. (L.) infantum treated with compounds 9 (141.5 μM) or 10 (110.1 μM). […]
Measurements of ROS were conducted as previously reported.[48] Briefly, promastigotes were treated with compounds 9 (141.5 μM) or 10 (110.1 μM) in HBSS+Glu at 24 °C using H2DCFDA (Molecular Probes). Fluorescence was measured using a fluorimetric microplate reader (FilterMax F5Multi-Mode, Molecular Devices) with excitation and emission filters at 485 and 520 nm, respectively.[48] Untreated and treated parasites (H2O2 - 40 μM) were used as negative and positive controls, respectively.

[5] = system: L. (L.) infantum promastigotes; format: cell-based, Leishmania (L.) infantum
From the text: Changes in the plasma membrane integrity of Leishmania spp. can lead to cell death due to pore formation, pH imbalance, and nutrient-transport failure. Initially, the fluorescent probe Sytox Green was employed to analyze the permeability of the plasma membrane. […] Untreated parasites were used as a negative control for normalization (0% permeabilization) whereas the nonionic surfactant Triton X-100 was used for as positive control (100% permeabilization).
Figure 4 Plasma membrane permeability in L. (L.) infantum promastigotes after 4 h of treatment with compound (A) 9 (141.5 μM) or (B) 10 (110.1 μM), using the fluorescent probe Sytox Green (p < 0.0001). Negative control: untreated parasites; positive control: Triton X-100 (TX-100).
Assays for determination of plasma membrane integrity of L. (L.) infantum were conducted as previously reported.[46] Briefly, compounds 9 (141.5 μM) and 10 (110.1 μM) were added to different wells and the resulting fluorescence was measured using a fluorimetric microplate reader (FilterMax F5Multi-Mode, Molecular Devices). Triton X-100 (0.5%, v/v) and untreated parasites were used as positive negative controls, respectively.[47]

| Compound | EC50 [1] [µM] | CC50 [2] [µM] | EC50 [3] [µM] | activity against promastigotes (in words) [3] | S.I. amastigote (selectivity index) [1] | ROS levels compared with negative control (H2DCFDA) [4] | permeabilization of the plasma membrane (Sytox Green) [5] |
| --- | --- | --- | --- | --- | --- | --- | --- |
| CCC/C=C/CCCNC(=O)c1ccc(Cl)cc1 [Compound 5, (E)-4-Chloro-N-(oct-4-en-1-yl)benzamides] | > 100 | > 200 | 73.3 ± 4.3 | – | – | – | – |
| CCC/C=C/CCCNC(=O)c1ccc(OC)cc1 [Compound 3, (E)-4-Methoxy-N-(oct-4-en-1-yl)benzamide] | > 100 | > 200 | > 150 | inactive | – | – | – |
| CCCCCCCCCCCCCCCCOP(=O)([O-])OCC[N+](C)(C)C [Miltefosine, miltefosine, reference compound] | 6.5 ± 3 | 120 ± 4.2 | 5.1 ± 0.6 | – | 18.4 | – | – |
| CCCCCC/C=C/CCc1ccc(O)cc1 [Gibbilimbol B, gibbilimbol B] | 95.1 ± 1.5 | > 200 | 99.4 ± 2.1 | – | >2.1 | – | – |
| CCC/C=C/CCCNC(=O)c1ccccc1 [Compound 1, (E)-N-(Oct-4-en-1-yl)benzamide] | > 100 | > 200 | > 100 | inactive | – | – | – |
| CCC/C=C/CCCNC(=O)c1ccc([N+](=O)[O-])cc1 [Compound 7, (E)-4-Nitro-N-(oct-4-en-1-yl)benzamide] | > 100 | 158 ± 37.3 | 49.8 ± 4 | – | – | – | – |
| CCC/C=C/CCCNC(=O)c1ccc(C(C)(C)C)cc1 [Compound 6, (E)-4-(tert-butyl)-N-(oct-4-en-1-yl)benzamide] | > 100 | > 200 | 66 ± 1 | – | – | – | – |
| CCCCC(CC)CNC(=O)c1ccc(F)cc1 (centres unmarked) [Compound 8, N-(2-Ethylhexyl)-4-fluorobenzamide] | > 100 | 156.8 ± 1 | 64.1 ± 3.5 | – | – | – | – |
| CCC/C=C/CCCNC(=O)c1ccc(C)cc1 [Compound 2, (E)-4-Methyl-N-(oct-4-en-1-yl)benzamide] | > 100 | > 200 | 66.9 ± 6.4 | – | – | – | – |
| CCCCC(CC)CNC(=O)c1ccc(C)cc1 (centres unmarked) [Compound 11, N-(2-Ethylhexyl)-4-methylbenzamide] | > 100 | > 200 | 66.3 ± 6 | – | – | – | – |
| CCC/C=C/CCCNC(=O)c1ccc(F)cc1 [Compound 4, (E)-4-Fluoro-N-(oct-4-en-1-yl)benzamide] | > 100 | > 200 | 67.4 ± 1.3 | – | – | – | – |
| [N-]=[N+]=[N-].[Na+] [Sodium azide, reference compound] | – | – | – | – | – | maximum production of ROS | – |
| CCCCC(CC)CNC(=O)c1ccc(C(C)(C)C)cc1 (centres unmarked) [Compound 12, N-(2-Ethylhexyl)-4-(tert-butyl)benzamide] | 5.1 ± 1.9 | > 200 | > 150 | inactive | >39.2 | – | – |
| Triton X-100 [reference compound] | – | – | – | – | – | – | maximum permeabilization |
